From PMC3130898 (Molecular and biochemical parasitology, 2010)

Biological target: T1, Oligopeptidase B (OPB) (Leishmania major, UniProt Q4QHU7)
T1 sequence (Q4QHU7 1-731): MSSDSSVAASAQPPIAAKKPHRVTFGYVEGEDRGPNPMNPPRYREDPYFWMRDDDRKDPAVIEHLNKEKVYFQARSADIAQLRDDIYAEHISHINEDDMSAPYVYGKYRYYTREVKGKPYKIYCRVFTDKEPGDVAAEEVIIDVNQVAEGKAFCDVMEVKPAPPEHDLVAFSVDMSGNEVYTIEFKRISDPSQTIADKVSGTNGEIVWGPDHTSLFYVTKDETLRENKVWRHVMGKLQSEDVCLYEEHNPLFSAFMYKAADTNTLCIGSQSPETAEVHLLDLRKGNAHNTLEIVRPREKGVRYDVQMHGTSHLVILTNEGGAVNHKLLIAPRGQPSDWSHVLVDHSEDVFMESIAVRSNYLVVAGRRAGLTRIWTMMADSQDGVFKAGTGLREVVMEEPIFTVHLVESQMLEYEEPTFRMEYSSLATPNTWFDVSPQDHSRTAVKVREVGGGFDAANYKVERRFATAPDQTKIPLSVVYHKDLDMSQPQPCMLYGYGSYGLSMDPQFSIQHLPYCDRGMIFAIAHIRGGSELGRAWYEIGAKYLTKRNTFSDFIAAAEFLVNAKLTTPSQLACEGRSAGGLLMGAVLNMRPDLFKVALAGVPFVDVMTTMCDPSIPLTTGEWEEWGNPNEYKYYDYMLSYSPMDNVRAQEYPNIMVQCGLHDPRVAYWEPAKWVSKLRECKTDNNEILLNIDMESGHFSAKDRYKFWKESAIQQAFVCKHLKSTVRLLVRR
Assay: inhibition of Bz-R-AMC cleavage in live promastigotes
Format: cell-based

With `NCCc1ccc(S(=O)(=O)F)cc1` [AEBSF] the IC50 was 14.4 µM.
